Measured values as given in EP0230052B1, “Immunoamplifiers and related Compositions” (Gottlieb, Arthur A., priority 1985, dated 1987).

What was measured:
DH response = assay: Modulator assay methods of the '379 patent (amplifier activity, DH test); format: in vivo, human; details: other moieties in effluents of Example 6B process
[1] = test system: DH skin reaction to tetanus toxoid; design: species or system human; details: in vivo
[2] = test system: IL-2 production in response to mitogen PHA; assay: IL-2 in vitro test (PHA-stimulated IL-2 production); format: cell-based, human; details: optimal concentration of TGG
Source text: The production of IL-2 in response to mitogen was characterized by the existence of the same optimal concentration phenomenon (paradoxical effect) described above.

| Substance | immunological activity as assayed by DH test (DH response) | optimum concentration for maximum immune effect [1] [fM] | ratio of PHA-stimulated IL-2 production with TGG added to without TGG ([2]; subject #1) | ratio of PHA-stimulated IL-2 production with TGG added to without TGG ([2]; subject #2) |
| --- | --- | --- | --- | --- |
| Gly-Gly | None of these other moieties appeared to possess immunological activity |  |  |  |
| Ser-Phe | None of these other moieties appeared to possess immunological activity |  |  |  |
| Tyrosylglycylglycine [TGG] |  | ~3 | 1.45 | 2.55 |
